For this assay, the system named is AP-1 induced transcriptional activity. Kind of assay: Cellular Transrepressional Assay: AP-1 luciferase reporter in PMA-activated A549 cells. It counts as cell-based. As to conditions: for Emax: A549, 7 h, read-out: AP-1 Max % inh (Cellular Transrepression Assay). The method, then:
Cellular Transrepressional Assay
To measure the ability of test molecules to inhibit AP-1 induced transcriptional activity we utilized an A549 cell which was stably transfected with a plasmid containing 7× AP-1 DNA binding sites (pAP-1-Luc plasmid, Stratagene Co. La Jolla, Calif.) followed by the gene for luciferase. Cells were activated with 10 ng/ml of […] (PMA) plus or minus test molecules for 7 hours. After 7 hours a luciferase reagent was added to measure luciferase enzymatic activity in the cell. After a 10 minute incubation of luciferase reagent with cells, luminescence was measured in a TopCount luminescence counter. Repression of AP-1 activity was calculated as the percentage decrease in the signal induced by PMA alone. Test molecules were analyzed in the concentration range from 0.1 nM to 40 μM. EC50s were determined by using standard curve fitting methods such as Excel fit (Microsoft Co.).

Setting [1] is: Homo sapiens, maximum inhibition, Cellular Transrepression Assay.
Setting [2] is: Homo sapiens, A549, Cellular Transrepression Assay.

31 compounds from patent US7968577B2 (Bristol-Myers Squibb Company, priority 2006, dated 2011) can be followed below.

What is called EC50 is the concentration needed to bring the measured effect to its halfway point. Read a low EC50 as higher potency in that assay.

Regarding `CCCc1ccc(-c2ccc(C(CC(C)C)C(C)(C)C(=O)Nc3nccs3)cc2)cc1` (centres unmarked) [Example 398, 2,2,5-trimethyl-3-(4′-propyl-4-biphenylyl)-N-1,3-thiazol-2-ylhexanamide], under setting [1], the Emax was 28.2%. This compound yielded an EC50 under setting [2] of 70 nM.

With `COc1ccc2c(-c3csc(NC(=O)C(C)(C)C(c4ccccc4)c4ccccc4)n3)cccc2c1` [Example 166, 2,2-dimethyl-N-(4-(6-(methyloxy)-1-naphthalenyl)-1,3-thiazol-2-yl)-3,3-diphenylpropanamide], the Emax under setting [1] amounted to 62.3%. In addition, the EC50 under setting [2] worked out at 950 nM. Consider `CC(C)(C(=O)Nc1nccs1)[C@@H](c1ccccc1)c1ccc(OC(=O)c2ccoc2)cc1` [Example 364, 4-((1S)-2,2-dimethyl-3-oxo-1-phenyl-3-(1,3-thiazol-2-ylamino)propyl)phenyl 3-furancarboxylate], for which the Emax under setting [1] came to 39.1%. This compound showed an EC50 under setting [2] of 184 nM. For `CC(C)(C(=O)Nc1nncs1)C(c1ccccc1)c1ccc(-c2ccc(OC(F)(F)F)cc2)cc1` (centres unmarked) [Example 405, 2,2-dimethyl-3-phenyl-N-1,3,4-thiadiazol-2-yl-3-(4′-(trifluoromethoxy)-4-biphenylyl)propanamide], the Emax under setting [1] stood at 35.2%. The EC50 under setting [2] worked out at 24.6 nM. For the compound `CC(C)(C(=O)Nc1nc(-c2ccc(F)cc2)cs1)C(c1ccccc1)c1ccccc1` [Example 168, N-(4-(4-fluorophenyl)-1,3-thiazol-2-yl)-2,2-dimethyl-3,3-diphenylpropanamide], the Emax under setting [1] came to 23%.

Regarding `CCOC(=O)/C(=N/OC)c1csc(NC(=O)C(C)(C)C(c2ccccc2)c2ccccc2)n1` [Example 49, ethyl (2E)-(2-((2,2-dimethyl-3,3-diphenylpropanoyl)amino)-1,3-thiazol-4-yl)((methyloxy)imino)ethanoate], the Emax under setting [1] was 20.1%.

The compound `CC(C)(C(=O)Nc1nncs1)C(c1ccccc1)c1ccc(N2CCOCC2)cc1` (centres unmarked) [Example 260, 2,2-dimethyl-3-(4-(4-morpholinyl)phenyl)-3-phenyl-N-1,3,4-thiadiazol-2-ylpropanamide] registered a 50% effective concentration (EC50) (Cellular Transrepression Assay) of 4.06 nM. Also, the “AP-1 Max % inh (Cellular Transrepression Assay)” value (maximum inhibition, Cellular Transrepression Assay) was 35.64%. For `COc1ccccc1C(c1ccccc1)C(C)(C)C(=O)Nc1nc(-c2ccccc2)cs1` (centres unmarked) [Example 84, 2,2-dimethyl-3-(2-(methyloxy)phenyl)-3-phenyl-N-(4-phenyl-1,3-thiazol-2-yl)propanamide], the Emax under setting [1] amounted to 30.8%. `CC(C)(C(=O)Nc1nc(Cc2ccc(-c3ccncc3)cc2)cs1)C(c1ccccc1)c1ccc(Cl)cc1` (centres unmarked) [Example 301, 3-(4-chlorophenyl)-2,2-dimethyl-3-phenyl-N-(4-((4-(4-pyridinyl)phenyl)methyl)-1,3-thiazol-2-yl)propanamide]: the Emax under setting [1] stood at 73.7%. Further, the EC50 under setting [2] was found to be 10.2 nM.

`COc1ccccc1C(c1ccccc1)C(C)(C)C(=O)Nc1nc(C)cs1` (centres unmarked) [Example 81, 2,2-dimethyl-3-(2-(methyloxy)phenyl)-N-(4-methyl-1,3-thiazol-2-yl)-3-phenylpropanamide]: the Emax under setting [1] stood at 23.1%. Regarding `COc1ccc([C@@H](c2ccccc2)C(C)(C)C(=O)Nc2nc(Cc3ccc(-c4ccncc4)cc3)cs2)cc1` (stereo in doubt) [Example 290, 2,2-dimethyl-3-(4-(methyloxy)phenyl)-3-phenyl-N-(4-((4-(4-pyridinyl)phenyl)methyl)-1,3-thiazol-2-yl)propanamide], the Emax under setting [1] amounted to 72.6%. The same compound showed an EC50 under setting [2] of 9.65 nM. In the case of `CCOC(=O)c1sc(NC(=O)C(C)(C)C(c2ccccc2)c2cccc(OC)c2)nc1C` (centres unmarked) [Example 100, ethyl 2-((2,2-dimethyl-3-(3-(methyloxy)phenyl)-3-phenylpropanoyl)amino)-4-methyl-1,3-thiazole-5-carboxylate], the Emax under setting [1] is 30%.

In the case of `Cc1cccc(-c2csc(NC(=O)C(C)(C)C(c3ccccc3)c3ccccc3)n2)c1` [Example 170, 2,2-dimethyl-N-(4-(3-methylphenyl)-1,3-thiazol-2-yl)-3,3-diphenylpropanamide], the Emax under setting [1] is 27%. With `CC(C)(C(=O)Nc1nccs1)[C@@H](c1ccccc1)c1ccc(O)cc1` [Example 325, (3S)-3-(4-hydroxyphenyl)-2,2-dimethyl-3-phenyl-N-1,3-thiazol-2-ylpropanamide], the Emax under setting [1] is 57.8%. Besides, a half-maximal effect under setting [2] (EC50) was put at 53.9 nM.

Take `CC(C)(C(=O)Nc1nncs1)C(c1ccccc1)c1ccc(-c2ccc(Cl)cc2)cc1` (centres unmarked) [Example 403, 3-(4′-chloro-4-biphenylyl)-2,2-dimethyl-3-phenyl-N-1,3,4-thiadiazol-2-ylpropanamide]: the Emax under setting [1] was 24.9%. In addition, under setting [2], the EC50 amounted to 3.03 nM. The matching figures for `CC(=O)c1ccc(C(c2ccccc2)C(C)(C)C(=O)Nc2nncs2)cc1` (centres unmarked) [Example 369, 3-(4-acetylphenyl)-2,2-dimethyl-3-phenyl-N-1,3,4-thiadiazol-2-ylpropanamide]: 34.9% and 819 nM. The matching figures for `CC(C)(C(=O)Nc1nc(-c2cccc3ccccc23)cs1)C(c1ccccc1)c1ccc(O)cc1` (centres unmarked) [Example 217, 3-(4-hydroxyphenyl)-2,2-dimethyl-N-(4-(1-naphthalenyl)-1,3-thiazol-2-yl)-3-phenylpropanamide]: 35% and 516 nM.

Regarding `COc1ccc(C(c2ccccc2)C(C)(C)C(=O)Nc2nc(C)cs2)cc1` (centres unmarked) [Example 104, 2,2-dimethyl-3-(4-(methyloxy)phenyl)-N-(4-methyl-1,3-thiazol-2-yl)-3-phenylpropanamide], the Emax under setting [1] was determined as 27.3%.

`COc1ccc(C(c2ccccc2)C(C)(C)C(=O)Nc2ncc(C)s2)cc1` (centres unmarked) [Example 105, 2,2-dimethyl-3-(4-(methyloxy)phenyl)-N-(5-methyl-1,3-thiazol-2-yl)-3-phenylpropanamide]: the Emax under setting [1] stood at 22.1%.

In the case of `O=C(Nc1nccs1)C1(C(c2ccccc2)c2ccccc2)CCCC1` [Example 162, 1-(diphenylmethyl)-N-1,3-thiazol-2-ylcyclopentanecarboxamide], the Emax under setting [1] came to 22.8%. In the case of `CCCCOc1ccc(-c2ccc(C(CC(C)C)C(C)(C)C(=O)Nc3nncs3)cc2)cc1` (centres unmarked) [Example 442, 3-(4′-butoxy-4-biphenylyl)-2,2,5-trimethyl-N-1,3,4-thiadiazol-2-ylhexanamide], under setting [1], the Emax amounted to 22.7%. Also, under setting [2], the midpoint of the response, the EC50, lay at 11.7 nM. With `CC(C)(C(=O)Nc1nc(Cc2ccc(-c3ccncc3)cc2)cs1)C(c1ccccc1)c1ccc(O)cc1` (centres unmarked) [Example 353, 3-(4-hydroxyphenyl)-2,2-dimethyl-3-phenyl-N-(4-((4-(4-pyridinyl)phenyl)methyl)-1,3-thiazol-2-yl)propanamide], under setting [1], the Emax was found to be 77.8%. This compound came in with an EC50 under setting [2] of 100 nM. In the case of `CC(C)(C(=O)Nc1nncs1)C(c1ccccc1)c1ccc(-c2ccc(C(=O)N3CCOCC3)cc2)cc1` (centres unmarked) [Example 401, 2,2-dimethyl-3-(4′-(4-morpholinylcarbonyl)-4-biphenylyl)-3-phenyl-N-1,3,4-thiadiazol-2-ylpropanamide], the Emax under setting [1] worked out at 47%. The compound also registered an EC50 under setting [2] of 13.3 nM.

As to `COc1ccc([C@H](c2ccccc2)C(C)(C)C(=O)Nc2nc(Cc3ccc(-c4ccncc4)cc3)cs2)cc1` (stereo in doubt) [Example 291, 2,2-dimethyl-3-(4-(methyloxy)phenyl)-3-phenyl-N-(4-((4-(4-pyridinyl)phenyl)methyl)-1,3-thiazol-2-yl)propanamide], the Emax under setting [1] worked out at 74.3%. The compound also yielded an EC50 under setting [2] of 10.3 nM. Turning to `COc1ccc(C(c2ccccc2)C(C)(C)C(=O)Nc2nc(CCc3ccccc3)cs2)cc1` (centres unmarked) [Example 109, 2,2-dimethyl-3-(4-(methyloxy)phenyl)-3-phenyl-N-(4-(2-phenylethyl)-1,3-thiazol-2-yl)propanamide], the Emax under setting [1] is 22.6%. `COc1cccc(C(c2ccccc2)C(C)(C)C(=O)Nc2ncc(C)s2)c1` (centres unmarked) [Example 93, 2,2-dimethyl-3-(3-(methyloxy)phenyl)-N-(5-methyl-1,3-thiazol-2-yl)-3-phenylpropanamide]: the Emax under setting [1] is 28.1%. For `CC(C)(C(=O)NC1CCCC1)[C@@H](c1ccccc1)c1ccc(O)cc1` [Example 335, (3S)-N-cyclopentyl-3-(4-hydroxyphenyl)-2,2-dimethyl-3-phenylpropanamide], the Emax under setting [1] turned out to be 21.2%. The same compound registered an EC50 under setting [2] of 9.32 nM. As to `CC(C)(C(=O)Nc1nc(-c2ccnc3ccccc23)cs1)C(c1ccccc1)c1ccccc1` [Example 184, 2,2-dimethyl-3,3-diphenyl-N-(4-(4-quinolinyl)-1,3-thiazol-2-yl)propanamide], the Emax under setting [1] was 57.5%. For `CCc1ccc(-c2ccc(C(c3ccccc3)C(C)(C)C(=O)Nc3nncs3)cc2)cc1` (centres unmarked) [Example 407, 3-(4′-ethyl-4-biphenylyl)-2,2-dimethyl-3-phenyl-N-1,3,4-thiadiazol-2-ylpropanamide], under setting [1], the Emax came to 37.5%. Also, the response under setting [2] was half-maximal at 14.9 nM (EC50).

Regarding `CC(C)(C(=O)Nc1nncs1)[C@@H](c1ccccc1)c1ccc(O)c(Br)c1` [Example 351, (3S)-3-(3-bromo-4-hydroxyphenyl)-2,2-dimethyl-3-phenyl-N-1,3,4-thiadiazol-2-ylpropanamide], under setting [1], the Emax was found to be 66%. This compound also displayed an EC50 under setting [2] of 16.4 nM. For the compound `CC(C)(C(=O)Nc1nncs1)[C@@H](c1ccccc1)c1ccc(O)cc1` [Example 339, (3S)-3-(4-hydroxyphenyl)-2,2-dimethyl-3-phenyl-N-1,3,4-thiadiazol-2-ylpropanamide], the Emax under setting [1] was 60.8%. Moreover, under setting [2], the EC50 stood at 30.5 nM.
